The species named for series [1] is Homo sapiens. In words: Selectivity ratio, IC50 for human SERT to IC50 for human NET.
Series [2] deals with Sodium-dependent serotonin transporter (Homo sapiens, UniProt P31645). In kind it is cell-based, JAR.
Description: Inhibition of human SERT expressed in JAR cells
In series [3] the target is Sodium-dependent noradrenaline transporter (Homo sapiens, UniProt P23975).
Description: Inhibition of human NET expressed in MDCK-Net6 cells
Series [4] concerns the target Sodium-dependent dopamine transporter (Homo sapiens) (UniProt Q01959). In words: Displacement of [3H]WIN-35428 from human DAT expressed in CHO cells. In kind it is cell-based. As to conditions: concentration not given here. (Displacement assays read how much labelled ligand stays bound in the presence of the test substance.)
A short description of series [5]: Cmax in rat at 10 mg/kg, po after 8 hrs. In kind it is ADME, organism-based. On the set-up: dose 10 mg/kg, route oral. As to conditions: in vivo.
Series [6] relates to Rattus norvegicus. Briefly: Effect on temperature homeostasis in ovariectomized-induced thermoregulatory dysfunction telemetric Sprague-Dawley rat model assessed as maximum reduction in tail skin temperature at 10 mg/kg, po. In kind it is functional.
The test system of series [7] is Rattus norvegicus. Briefly: Effect on temperature homeostasis in ovariectomized-induced thermoregulatory dysfunction telemetric Sprague-Dawley rat model assessed as mean reduction in tail skin temperature at 30 mg/kg, po. In kind it is functional.
The subject of series [8] is Rattus norvegicus. In words: Effect on temperature homeostasis in ovariectomized-induced thermoregulatory dysfunction in telemetric Sprague-Dawley rat model assessed as duration of onset activity in tail skin temperature reduction at 30 mg/kg, po. In kind it is functional.
In series [9] the test system is Rattus norvegicus. In words: Effect on temperature homeostasis in ovariectomized-induced thermoregulatory dysfunction telemetric Sprague-Dawley rat model assessed as maximum reduction in tail skin temperature at 30 mg/kg, po. In kind it is functional.
Series [10] in a line: Ratio of AUC in brain to AUC in plasma in rat at 10 mg/kg, po and 2 mg/kg, iv. In kind it is ADME, organism-based. As to conditions: read-out: Ratio AUC.
Series [11] deals with Rattus norvegicus. In words: Effect on temperature homeostasis in ovariectomized-induced thermoregulatory dysfunction telemetric Sprague-Dawley rat model assessed as duration of tail skin temperature reduction at 30 mg/kg, po. In kind it is functional.
Series [12] in a line: Oral bioavailability in rat at 10 mg/kg. In kind it is ADME, organism-based. As to conditions: in vivo.
Series [13] deals with Rattus norvegicus. Briefly: Effect on temperature homeostasis in ovariectomized-induced thermoregulatory dysfunction in telemetric Sprague-Dawley rat model assessed as duration of onset activity in tail skin temperature reduction at 10 mg/kg, po. In kind it is functional.
Series [14] relates to Rattus norvegicus. In words: Effect on temperature homeostasis in ovariectomized-induced thermoregulatory dysfunction in telemetric Sprague-Dawley rat model assessed as duration of tail skin temperature reduction at 10 mg/kg, po. In kind it is functional.
Series [15] relates to Rattus norvegicus. In words: Effect on temperature homeostasis in ovariectomized-induced thermoregulatory dysfunction telemetric Sprague-Dawley rat model assessed as mean reduction in tail skin temperature at 10 mg/kg, po. In kind it is functional.
A short description of series [16]: Plasma concentration in rat at 10 mg/kg, po after 8 hrs. In kind it is ADME, organism-based. Further details: dose 10 mg/kg, route oral.

Results on 31 compounds are retold here after ChEMBL document CHEMBL1155200, “Structure-activity relationships of the 1-amino-3-(1H-indol-1-yl)-3-phenylpropan-2-ol series of monoamine reuptake inhibitors” (Bioorg Med Chem Lett, 2009).

The structures appear in SMILES notation.

Sodium-dependent noradrenaline transporter, sequence (P23975 whole entry): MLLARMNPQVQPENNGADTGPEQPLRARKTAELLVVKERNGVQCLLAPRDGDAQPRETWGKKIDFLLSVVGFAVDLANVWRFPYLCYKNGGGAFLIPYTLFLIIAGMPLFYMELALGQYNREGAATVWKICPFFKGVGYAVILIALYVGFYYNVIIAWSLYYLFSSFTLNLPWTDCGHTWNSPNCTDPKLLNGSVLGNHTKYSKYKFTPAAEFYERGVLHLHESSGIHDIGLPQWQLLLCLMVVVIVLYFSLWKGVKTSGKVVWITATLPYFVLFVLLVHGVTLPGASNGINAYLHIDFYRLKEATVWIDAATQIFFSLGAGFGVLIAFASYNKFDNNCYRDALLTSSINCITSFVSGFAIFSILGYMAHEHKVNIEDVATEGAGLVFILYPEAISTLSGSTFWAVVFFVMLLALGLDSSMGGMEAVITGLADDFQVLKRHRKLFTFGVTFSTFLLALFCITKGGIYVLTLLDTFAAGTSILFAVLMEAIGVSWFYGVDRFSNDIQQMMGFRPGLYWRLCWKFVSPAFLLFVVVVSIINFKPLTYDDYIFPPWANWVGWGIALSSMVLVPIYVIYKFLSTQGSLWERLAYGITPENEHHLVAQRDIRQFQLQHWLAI
Sodium-dependent dopamine transporter (Homo sapiens), sequence (Q01959 whole entry): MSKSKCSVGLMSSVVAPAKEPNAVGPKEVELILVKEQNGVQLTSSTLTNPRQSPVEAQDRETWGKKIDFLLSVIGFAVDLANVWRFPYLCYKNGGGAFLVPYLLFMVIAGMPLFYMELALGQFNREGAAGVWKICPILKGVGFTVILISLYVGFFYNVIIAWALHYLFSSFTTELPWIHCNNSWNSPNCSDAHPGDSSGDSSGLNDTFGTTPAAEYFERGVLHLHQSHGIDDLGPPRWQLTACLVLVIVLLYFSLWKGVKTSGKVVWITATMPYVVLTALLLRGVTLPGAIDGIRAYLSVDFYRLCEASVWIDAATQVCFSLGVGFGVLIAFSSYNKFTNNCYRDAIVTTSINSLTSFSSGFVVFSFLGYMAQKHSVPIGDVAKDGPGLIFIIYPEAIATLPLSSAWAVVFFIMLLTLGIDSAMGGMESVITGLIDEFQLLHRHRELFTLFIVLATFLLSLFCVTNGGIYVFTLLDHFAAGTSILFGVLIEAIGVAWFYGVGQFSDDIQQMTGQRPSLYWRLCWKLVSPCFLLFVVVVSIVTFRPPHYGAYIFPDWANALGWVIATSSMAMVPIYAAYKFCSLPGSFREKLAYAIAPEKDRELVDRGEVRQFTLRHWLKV
Sodium-dependent serotonin transporter, sequence (P31645 whole entry): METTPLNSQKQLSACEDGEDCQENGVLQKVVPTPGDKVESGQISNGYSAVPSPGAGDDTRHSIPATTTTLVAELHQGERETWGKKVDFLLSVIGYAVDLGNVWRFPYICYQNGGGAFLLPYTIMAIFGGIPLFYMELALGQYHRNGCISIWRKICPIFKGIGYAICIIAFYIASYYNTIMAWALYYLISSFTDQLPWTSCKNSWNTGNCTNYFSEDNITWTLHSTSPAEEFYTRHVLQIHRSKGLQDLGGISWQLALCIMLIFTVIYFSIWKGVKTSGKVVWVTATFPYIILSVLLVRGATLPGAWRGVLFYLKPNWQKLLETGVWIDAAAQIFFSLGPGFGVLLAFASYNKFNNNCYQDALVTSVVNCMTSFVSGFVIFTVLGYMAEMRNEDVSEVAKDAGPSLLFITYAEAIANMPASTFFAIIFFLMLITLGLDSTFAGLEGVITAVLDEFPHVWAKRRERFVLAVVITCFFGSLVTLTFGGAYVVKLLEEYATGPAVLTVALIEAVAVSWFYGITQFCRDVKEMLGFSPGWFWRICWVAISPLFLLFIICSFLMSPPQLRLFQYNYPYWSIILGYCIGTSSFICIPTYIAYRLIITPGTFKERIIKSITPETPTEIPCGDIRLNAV

In general, IC50 refers to the concentration at which inhibition is half-maximal. High values mean weaker potency, low ones greater potency. One may read the inhibition as the percentage by which the read-out fell short of the control. Higher therefore signals strong suppression. Take `CNC[C@@H](O)[C@H](c1cccc(F)c1)n1ccc2cccc(Cl)c21`: the Ratio IC50 in series [1] was 2. For the same compound, the IC50 in series [2] came to 48 nM; in series [3], 21 nM. The same compound had an inhibition in series [4] of 0%.

For `CNC[C@@H](O)[C@H](c1ccc(Cl)cc1)n1ccc2ccccc21`, the Ratio IC50 in series [1] worked out at 1. The IC50 was 748 nM in [2] and 527 nM in series [3]. The same compound yielded an inhibition in [4] of 16%.

As for `CNC[C@@H](O)[C@H](c1cccc(F)c1)n1ccc2cccc(F)c21`, the Ratio IC50 in [1] is 25. In addition, the IC50 turned out to be 175 nM in series [2] and 7 nM in [3]. The compound further returned an inhibition in series [4] of 8%.

Consider `CNC[C@@H](O)[C@H](c1cccc(F)c1)n1ccc2cc(F)ccc21`, for which the Ratio IC50 in [1] was determined as 4. Moreover, the IC50 in [2] came out at 78 nM; in [3], 22 nM. Moreover, the inhibition in [4] is 9%.

On to `CNC[C@@H](O)[C@H](c1ccc(F)cc1)n1ccc2ccccc21`, for which, in series [1], the Ratio IC50 was 16. In addition, the IC50 came to 1370 nM in series [2] and 84 nM in series [3]. The inhibition in series [4] came out at 11%.

As to `CNC[C@@H](O)[C@H](c1cccc(F)c1)n1ccc2c(Br)cccc21`, in series [1], the Ratio IC50 was 4. The figures for the IC50 in series [2] and in series [3] were 207 nM and 52 nM, respectively. In series [4], this compound registered an inhibition of 24%.

`CNCC[C@H](c1cccc(F)c1)n1ccc2ccccc21`: the Ratio IC50 in series [1] came to 0.2. Further, the IC50 in [2] was determined as 14 nM; in series [3] it was 91 nM. The inhibition in [4] came out at 52%.

`CNC[C@@H](O)[C@H](c1cccc(F)c1)n1ccc2cccc(C)c21`: in series [1], the Ratio IC50 amounted to 29. Further, the IC50 came out at 527 nM in series [2] and 18 nM in [3]. In series [4], the inhibition came out at 7%.

With `CNC[C@@H](O)[C@H](c1ccc(C)cc1)n1ccc2ccccc21`, in [1], the Ratio IC50 is 3. Moreover, the IC50 in series [2] is 398 nM; in series [3], 117 nM. In addition, the inhibition in series [4] was 0%.

As for `CNC[C@@H](O)[C@H](c1cccc(F)c1)n1ccc2cccc(Br)c21`, the Ratio IC50 in series [1] came to 5. Further, the IC50 came to 113 nM in series [2] and 21 nM in series [3]. Further, the inhibition in series [4] is 0%.

Turning to `CNC[C@@H](O)[C@H](c1cccc(F)c1)n1ccc2ccccc21`, the Ratio IC50 in series [1] is 40. Moreover, the IC50 is 441 nM in series [2] and 11 nM in series [3]. The inhibition in series [4] was 23%.

On to `CNC[C@@H](O)[C@H](c1cccc(F)c1)n1ccc2cc(C)ccc21`, for which, in [1], the Ratio IC50 is 2. The IC50 in series [2] turned out to be 48 nM; in series [3] it was 21 nM. In addition, in series [4], the inhibition came out at 0%.

For the compound `CNC[C@@H](O)[C@H](c1cccc(F)c1)n1ccc2c(F)cccc21`, the Ratio IC50 in series [1] worked out at 26. In addition, the values for the IC50 in series [2] and in [3] were 417 nM and 16 nM, respectively. Moreover, in series [4], the inhibition is 3%.

In the case of `CNC[C@@H](O)[C@H](c1ccccc1C)n1ccc2ccccc21`, the Ratio IC50 in series [1] turned out to be 1. The IC50 in series [2] was found to be 266 nM; in [3], 232 nM. The compound further showed an inhibition in series [4] of 11%.

Broadly, the Cmax is the highest concentration seen after dosing. The bioavailability is the share of a dose that reaches the circulation, judged against a reference dose that is usually intravenous. Low values mean poor availability, high ones good availability. For `CNC[C@@H](O)[C@H](c1cccc(F)c1)n1cc(C)c2ccccc21`, the peak level in series [5] (Cmax) was 87 ng/mL. Moreover, the Activity in series [6] was -2.3 °C; in series [7], -3.8 °C; in [8] it was 0.5 h; in [9], -7 °C; in series [11], 10.5 h; in series [13], 1 h. Besides, the Activity in [15] is -1.5 °C. For the same compound, the Ratio IC50 in [1] came out at 86. For the same compound, the IC50 is 343 nM in series [2] and 4 nM in series [3]. Further, in series [10], the Kp is 3.5. This compound displayed a bioavailability in series [12] of 6%. Also, in [14], the Time came to 5 h. In series [4], this compound yielded an inhibition of 8%. Further, in series [16], the concentration at 8 h stood at 40 nM.

As for `CNC[C@@H](O)[C@H](c1ccccc1Cl)n1ccc2ccccc21`, the Ratio IC50 in [1] amounted to 4. For the same compound, the half-inhibitory concentration (IC50) in series [2] worked out at 1330 nM; in series [3], 304 nM. For the same compound, in series [4], the inhibition was 7%.

For `CNC[C@@H](O)[C@H](c1cccc(F)c1)n1ccc2cc(Br)ccc21`, the Ratio IC50 in [1] was 1. Also, the IC50 in series [2] came out at 52 nM; in [3] it was 60 nM. The compound further returned an inhibition in series [4] of 10%.

In the case of `CNC[C@@H](O)[C@H](c1cccc(Br)c1)n1ccc2ccccc21`, the Ratio IC50 in series [1] stood at 39. The results for the IC50 in series [2] and in [3] were 547 nM and 14 nM, respectively. Besides, the inhibition in [4] was 13%.

As to `CNC[C@@H](O)[C@H](c1cccc(Cl)c1)n1ccc2ccccc21`, the Ratio IC50 in series [1] stood at 34. The results for the IC50 in series [2] and in [3] were 554 nM and 16 nM, respectively. Further, the inhibition in series [4] came to 20%.

For the compound `CNC[C@@H](O)[C@H](c1cccc(F)c1)n1ccc2ccc(Cl)cc21`, in [1], the Ratio IC50 was found to be 9. The IC50 in series [2] is 865 nM; in series [3], 92 nM. In addition, the inhibition in series [4] is 9%.

For `CNC[C@@H](O)[C@H](c1ccccc1F)n1ccc2ccccc21`, the Ratio IC50 in [1] was 5. Also, the IC50 in series [2] turned out to be 473 nM; in series [3], 92 nM. In series [4], this compound came in with an inhibition of 4%.

Regarding `CNC[C@@H](O)[C@H](c1cccc(F)c1)n1ccc2cc(Cl)ccc21`, the Ratio IC50 in series [1] was found to be 1. Moreover, the figures for the IC50 in [2] and in [3] were 79 nM and 60 nM, respectively. This compound registered an inhibition in [4] of 6%.

`CNC[C@@H](O)[C@H](c1cccc(F)c1)n1ccc2ccc(F)cc21`: the Ratio IC50 in [1] came out at 31. Besides, the IC50 in [2] was found to be 626 nM; in series [3], 20 nM. In series [4], this compound gave an inhibition of 15%.

`CNCC[C@H](c1ccccc1)n1ccc2ccccc21`: in series [1], the Ratio IC50 amounted to 14. Further, the results for the IC50 in [2] and in series [3] were 491 nM and 34 nM, respectively. Also, in [4], the inhibition was determined as 44%.

As to `CNC[C@@H](O)[C@H](c1cccc(F)c1)n1ccc2ccc(Br)cc21`, the Ratio IC50 in series [1] was found to be 8. Further, the IC50 worked out at 1000 nM in series [2] and 124 nM in series [3]. This compound came in with an inhibition in [4] of 12%.

As for `CNC[C@@H](O)[C@H](c1cccc(OC)c1)n1ccc2ccccc21`, the Ratio IC50 in [1] worked out at 8. For the same compound, the IC50 in series [2] came to 882 nM; in series [3], 111 nM. The compound also had an inhibition in series [4] of 0%.

With `CCc1cn([C@@H](c2cccc(F)c2)[C@H](O)CNC)c2ccccc12`, the Ratio IC50 in series [1] came to 83. The IC50 worked out at 834 nM in [2] and 10 nM in [3]. The inhibition in [4] stood at 0%.

Consider `CNC[C@@H](O)[C@H](c1cccc(C)c1)n1ccc2ccccc21`, for which, in series [1], the Ratio IC50 amounted to 8. Besides, the values for the IC50 in [2] and in [3] were 377 nM and 49 nM, respectively. In [4], the inhibition was determined as 8%.

Regarding `CNC[C@@H](O)[C@H](c1cccc(C(F)(F)F)c1)n1ccc2ccccc21`, the Ratio IC50 in series [1] is 40. For the same compound, the figures for the IC50 in series [2] and in series [3] were 2180 nM and 54 nM, respectively. This compound also had an inhibition in series [4] of 14%.

As to `CNC[C@@H](O)[C@H](c1cccc(F)c1)n1ccc2c(C)cccc21`, the Ratio IC50 in series [1] came to 15. Besides, the IC50 in [2] stood at 228 nM; in [3], 15 nM. The same compound had an inhibition in series [4] of 4%.

Take `CNC[C@@H](O)[C@H](c1cccc(F)c1)n1ccc2c(Cl)cccc21`: the Ratio IC50 in [1] came to 3. Further, the values for the IC50 in series [2] and in [3] were 221 nM and 64 nM, respectively. Further, in [4], the inhibition came out at 12%.
